Assay results reported in US10874745B2, “Antimicrobial peptides and methods of treating gram-negative pathogens: polar and non-polar face analogs” (priority 2017, dated 2020).
Converted amounts (≈) assume the structure as drawn. “And” between values parts separate entries of the source, which are not always exact repeats. Identical values can stand only once. Like-named read-outs stand apart in the source and are kept apart here. Non-standard residues stand in square brackets, D forms with d. Residues, ends and D or L forms follow the SMILES beside them. dDap = NC[C@@H](N)C(=O)O

Key:
human red blood cells = experiment: Hemolytic activity; type: cell-based; details: for Hemolytic activity HC30: 18 h
Method: (§1) Hemoglobin release was determined spectrophotometrically at 570 nm. […] […] […] With the peptides used in this study the inventors used the HC30/MIC ratio value to calculate the therapeutic index.

A. baumannii strain 649 = type: cell-based, Acinetobacter baumannii
Excerpt: A critical component to the systemic use of AMPs to treat bacterial infections is the extent of AMP binding to serum proteins. In addition, since only the unbound AMP is available to interact with the therapeutic target, the extent of serum binding can have significant effects on efficacy. […] This assay estimates the in vivo bioavailability of the AMPs. […] An increase in MIC in serum is attributed to inhibition of antimicrobial activity due to serum protein binding.

[1] = tested on: A. baumannii strains resistant to Polymyxin B and Colistin; type: cell-based
Excerpt: Gram-Negative Bacterial Strains used in this Study: All the A. baumannii strains used in this study were 1) obtained from the collection of Dr. Anthony A. Campagnari at the University of Buffalo and originally isolated from different patients and organs/tissues (strain 649, blood; strain 689, groin; strain 759, gluteus; strain 884, axilla; strain 985, pleural fluid); 2) were purchased from the American Type Culture Collection (ATCC, Manassas, Va., USA) (strain ATCC 17978, fatal meningitis; and strain ATCC 19606, urine); 3) obtained from MERCK (M89941, M89949, M89951, M89952, M89953, M89955 and M89963). These seven A. baumannii strains were resistant to polymyxin B and polymyxin E (Colistin).
Measurement of Antimicrobial Activity (MIC): The minimal inhibitory concentration (MIC) is defined as the lowest peptide concentration that inhibited bacterial growth. MICs were measured by a standard microtiter dilution method in Mueller Hinton (MH) medium. Briefly, cells were grown overnight at 37° C. in MH broth and were diluted in the same medium. […] The plates were incubated at 37° C. for 24 h, and the MICs were determined.

Hemolytic activity = type: cell-based, human; details: human, 1% human erythrocytes (red blood cells), pH 7.4
Method: as §1

| Structure (SMILES) | Hemolytic activity HC30 (human red blood cells) [µM] | MIC, 25% human serum (A. baumannii strain 649) [µM] | MIC, No serum (A. baumannii strain 649) [µM] | MIC ([1]; strain MB9941 (Table 9C)) [µM] | MIC ([1]; strain MB9949 (Table 9C)) [µM] | MIC ([1]; strain MB9951 (Table 9C)) [µM] | MIC ([1]; strain MB9952 (Table 9C)) [µM] | MIC ([1]; strain MB9953 (Table 9C)) [µM] | MIC ([1]; strain MB9955 (Table 9C)) [µM] | MIC ([1]; strain MB9963 (Table 9C)) [µM] | HC50 (human red blood cells) [µM] | HC50 at 18 h (Hemolytic activity) |
| --- | --- | --- | --- | --- | --- | --- | --- | --- | --- | --- | --- | --- |
| CC(=O)N[C@H](C)C(=O)N[C@H](CC(C)C)C(=O)N[C@H](CCCCN)C(=O)N[C@H](CO)C(=O)N[C@H](CC(C)C)C(=O)N[C@H](CC(C)C)C(=O)N[C@H](CCCCN)C(=O)N[C@@H](C(=O)N[C@H](CC(C)C)C(=O)N[C@H](CO)C(=O)N[C@H](CCCCN)C(=O)N[C@H](C)C(=O)N[C@H](CCCCN)C(=O)N[C@H](C)C(=O)N[C@H](C)C(=O)N[C@H](CCCCN)C(=O)N[C@H](CC(C)C)C(=O)N[C@H](CCCCN)C(=O)N[C@@H](C(=O)N[C@H](CC(C)C)C(=O)N[C@H](CC(C)C)C(=O)N[C@H](CCCCN)C(=O)N[C@H](C)C(=O)N[C@H](CC(C)C)C(=O)N[C@H](CO)C(=O)N[C@H](CCCCN)C(N)=O)[C@H](C)O)[C@H](C)O [Peptide D33] | 89 | 0.7 (≈ 1.97 µg/mL) | 0.1 (≈ 0.281 µg/mL) |  |  |  |  |  |  |  |  |  |
| CC(=O)N[C@H](C)C(=O)N[C@H](CC(C)C)C(=O)N[C@H](CCCCN)C(=O)N[C@H](CO)C(=O)N[C@H](CC(C)C)C(=O)N[C@H](CC(C)C)C(=O)N[C@H](CCCCN)C(=O)N[C@@H](C(=O)N[C@H](CC(C)C)C(=O)N[C@H](CO)C(=O)N[C@H](C)C(=O)N[C@H](C)C(=O)N[C@H](CCCCN)C(=O)N[C@H](CCCCN)C(=O)N[C@H](CCCCN)C(=O)N[C@H](CCCCN)C(=O)N[C@H](CC(C)C)C(=O)N[C@H](C)C(=O)N[C@@H](C(=O)N[C@H](CC(C)C)C(=O)N[C@H](CC(C)C)C(=O)N[C@H](CCCCN)C(=O)N[C@H](C)C(=O)N[C@H](CC(C)C)C(=O)N[C@H](CO)C(=O)N[C@H](CCCCN)C(N)=O)[C@H](C)O)[C@H](C)O [Peptide D34] | 126 | 1.4 (≈ 3.93 µg/mL) | 0.2 (≈ 0.562 µg/mL) |  |  |  |  |  |  |  |  |  |
| CC(=O)N[C@H](C)C(=O)N[C@H](CC(C)C)C(=O)N[C@H](CCCCN)C(=O)N[C@H](CO)C(=O)N[C@H](CC(C)C)C(=O)N[C@H](CC(C)C)C(=O)N[C@H](C)C(=O)N[C@@H](C(=O)N[C@H](CC(C)C)C(=O)N[C@H](CO)C(=O)N[C@H](CCCCN)C(=O)N[C@H](C)C(=O)N[C@H](CCCCN)C(=O)N[C@H](CCCCN)C(=O)N[C@H](CCCCN)C(=O)N[C@H](CCCCN)C(=O)N[C@H](CC(C)C)C(=O)N[C@H](CCCCN)C(=O)N[C@@H](C(=O)N[C@H](CC(C)C)C(=O)N[C@H](CC(C)C)C(=O)N[C@H](C)C(=O)N[C@H](C)C(=O)N[C@H](CC(C)C)C(=O)N[C@H](CO)C(=O)N[C@H](CCCCN)C(N)=O)[C@H](C)O)[C@H](C)O [Peptide D35] | 30 | 1.4 (≈ 3.93 µg/mL) | 0.4 (≈ 1.12 µg/mL) |  |  |  |  |  |  |  |  |  |
| CC(=O)N[C@H](C)C(=O)N[C@H](CC(C)C)C(=O)N[C@H](C)C(=O)N[C@H](CO)C(=O)N[C@H](CC(C)C)C(=O)N[C@H](CC(C)C)C(=O)N[C@H](CCCCN)C(=O)N[C@@H](C(=O)N[C@H](CC(C)C)C(=O)N[C@H](CO)C(=O)N[C@H](CCCCN)C(=O)N[C@H](C)C(=O)N[C@H](CCCCN)C(=O)N[C@H](CCCCN)C(=O)N[C@H](CCCCN)C(=O)N[C@H](CCCCN)C(=O)N[C@H](CC(C)C)C(=O)N[C@H](CCCCN)C(=O)N[C@@H](C(=O)N[C@H](CC(C)C)C(=O)N[C@H](CC(C)C)C(=O)N[C@H](CCCCN)C(=O)N[C@H](C)C(=O)N[C@H](CC(C)C)C(=O)N[C@H](CO)C(=O)N[C@H](C)C(N)=O)[C@H](C)O)[C@H](C)O [Peptide D36] | 61 | 0.7 (≈ 1.97 µg/mL) | 0.4 (≈ 1.12 µg/mL) |  |  |  |  |  |  |  |  |  |
| CC(=O)N[C@H](C)C(=O)N[C@H](CC(C)C)C(=O)N[C@H](CCCCN)C(=O)N[C@H](CO)C(=O)N[C@H](CC(C)C)C(=O)N[C@H](CC(C)C)C(=O)N[C@H](CCCCN)C(=O)N[C@@H](C(=O)N[C@H](CC(C)C)C(=O)N[C@H](CO)C(=O)N[C@H](CCCCN)C(=O)N[C@H](C)C(=O)N[C@H](C)C(=O)N[C@H](C)C(=O)N[C@H](C)C(=O)N[C@H](C)C(=O)N[C@H](CC(C)C)C(=O)N[C@H](CCCCN)C(=O)N[C@@H](C(=O)N[C@H](CC(C)C)C(=O)N[C@H](CC(C)C)C(=O)N[C@H](CCCCN)C(=O)N[C@H](C)C(=O)N[C@H](CC(C)C)C(=O)N[C@H](CO)C(=O)N[C@H](CCCCN)C(N)=O)[C@H](C)O)[C@H](C)O [Peptide D37] | 2.6 | >92.8 | 2.9 (≈ 7.81 µg/mL) |  |  |  |  |  |  |  |  |  |
| CC(=O)N[C@H](C)C(=O)N[C@H](CC(C)C)C(=O)N[C@H](CCCCN)C(=O)N[C@H](CO)C(=O)N[C@H](CC(C)C)C(=O)N[C@H](CC(C)C)C(=O)N[C@H](CCCCN)C(=O)N[C@@H](C(=O)N[C@H](CC(C)C)C(=O)N[C@H](CO)C(=O)N[C@H](C)C(=O)N[C@H](C)C(=O)N[C@H](C)C(=O)N[C@H](CCCCN)C(=O)N[C@H](CCCCN)C(=O)N[C@H](C)C(=O)N[C@H](CC(C)C)C(=O)N[C@H](C)C(=O)N[C@@H](C(=O)N[C@H](CC(C)C)C(=O)N[C@H](CC(C)C)C(=O)N[C@H](CCCCN)C(=O)N[C@H](C)C(=O)N[C@H](CC(C)C)C(=O)N[C@H](CO)C(=O)N[C@H](CCCCN)C(N)=O)[C@H](C)O)[C@H](C)O [Peptide D38] | 2.8 | >92.8 | 0.7 (≈ 1.89 µg/mL) |  |  |  |  |  |  |  |  |  |
| CC(=O)N[C@H](C)C(=O)N[C@H](CC(C)C)C(=O)N[C@H](CCCCN)C(=O)N[C@H](CO)C(=O)N[C@H](CC(C)C)C(=O)N[C@H](CC(C)C)C(=O)N[C@H](C)C(=O)N[C@@H](C(=O)N[C@H](CC(C)C)C(=O)N[C@H](CO)C(=O)N[C@H](CCCCN)C(=O)N[C@H](C)C(=O)N[C@H](C)C(=O)N[C@H](CCCCN)C(=O)N[C@H](CCCCN)C(=O)N[C@H](C)C(=O)N[C@H](CC(C)C)C(=O)N[C@H](CCCCN)C(=O)N[C@@H](C(=O)N[C@H](CC(C)C)C(=O)N[C@H](CC(C)C)C(=O)N[C@H](C)C(=O)N[C@H](C)C(=O)N[C@H](CC(C)C)C(=O)N[C@H](CO)C(=O)N[C@H](CCCCN)C(N)=O)[C@H](C)O)[C@H](C)O [Peptide D39] | 2.8 | >92.8 | 1.4 (≈ 3.77 µg/mL) |  |  |  |  |  |  |  |  |  |
| CC(=O)N[C@H](C)C(=O)N[C@H](CC(C)C)C(=O)N[C@H](C)C(=O)N[C@H](CO)C(=O)N[C@H](CC(C)C)C(=O)N[C@H](CC(C)C)C(=O)N[C@H](CCCCN)C(=O)N[C@@H](C(=O)N[C@H](CC(C)C)C(=O)N[C@H](CO)C(=O)N[C@H](CCCCN)C(=O)N[C@H](C)C(=O)N[C@H](C)C(=O)N[C@H](CCCCN)C(=O)N[C@H](CCCCN)C(=O)N[C@H](C)C(=O)N[C@H](CC(C)C)C(=O)N[C@H](CCCCN)C(=O)N[C@@H](C(=O)N[C@H](CC(C)C)C(=O)N[C@H](CC(C)C)C(=O)N[C@H](CCCCN)C(=O)N[C@H](C)C(=O)N[C@H](CC(C)C)C(=O)N[C@H](CO)C(=O)N[C@H](C)C(N)=O)[C@H](C)O)[C@H](C)O [Peptide D40] | 2.8 | >92.8 | 2.9 (≈ 7.81 µg/mL) |  |  |  |  |  |  |  |  |  |
| CC(=O)N[C@H](CCCCN)C(=O)N[C@H](CC(C)C)C(=O)N[C@H](CCCCN)C(=O)N[C@H](CO)C(=O)N[C@H](CC(C)C)C(=O)N[C@H](CC(C)C)C(=O)N[C@H](CCCCN)C(=O)N[C@@H](C(=O)N[C@H](CC(C)C)C(=O)N[C@H](CO)C(=O)N[C@H](C)C(=O)N[C@H](C)C(=O)N[C@H](CCCCN)C(=O)N[C@H](CCCCN)C(=O)N[C@H](CCCCN)C(=O)N[C@H](CCCCN)C(=O)N[C@H](CC(C)C)C(=O)N[C@H](C)C(=O)N[C@@H](C(=O)N[C@H](CC(C)C)C(=O)N[C@H](CC(C)C)C(=O)N[C@H](CCCCN)C(=O)N[C@H](C)C(=O)N[C@H](CC(C)C)C(=O)N[C@H](CO)C(=O)N[C@H](CCCCN)C(N)=O)[C@H](C)O)[C@H](C)O [Peptide D88, Ac-KL(Lys)SLL(Lys)TLSAAK(Lys)(Lys)KLATLL(Lys)ALS(Lys)-amide] (Ac-[dK][dL][dK][dS][dL][dL][dK][dT][dL][dS][dA][dA][dK][dK][dK][dK][dL][dA][dT][dL][dL][dK][dA][dL][dS][dK]-NH2) |  |  |  | 0.7 (≈ 2.01 µg/mL) | 0.7 (≈ 2.01 µg/mL) | 0.3 (≈ 0.86 µg/mL) | 0.3 (≈ 0.86 µg/mL) | 0.3 (≈ 0.86 µg/mL) | 0.3 (≈ 0.86 µg/mL) | 0.3 (≈ 0.86 µg/mL) | 80.6 | 231 µg/mL and 80.6 µM |
| CC(=O)N[C@H](CCCCN)C(=O)N[C@H](CC(C)C)C(=O)N[C@H](CN)C(=O)N[C@H](CO)C(=O)N[C@H](CC(C)C)C(=O)N[C@H](CC(C)C)C(=O)N[C@H](CN)C(=O)N[C@@H](C(=O)N[C@H](CC(C)C)C(=O)N[C@H](CO)C(=O)N[C@H](C)C(=O)N[C@H](C)C(=O)N[C@H](CCCCN)C(=O)N[C@H](CN)C(=O)N[C@H](CN)C(=O)N[C@H](CCCCN)C(=O)N[C@H](CC(C)C)C(=O)N[C@H](C)C(=O)N[C@@H](C(=O)N[C@H](CC(C)C)C(=O)N[C@H](CC(C)C)C(=O)N[C@H](CN)C(=O)N[C@H](C)C(=O)N[C@H](CC(C)C)C(=O)N[C@H](CO)C(=O)N[C@H](CN)C(N)=O)[C@H](C)O)[C@H](C)O [Peptide D106, Ac-KL(Dpr)SLL(Dpr)TLSAAK(Dpr)(Dpr)KLATLL(Dpr)ALs(Dpr)-amide] (Ac-[dK][dL][dDap][dS][dL][dL][dDap][dT][dL][dS][dA][dA][dK][dDap][dDap][dK][dL][dA][dT][dL][dL][dDap][dA][dL][dS][dDap]-NH2) |  |  |  | 0.8 (≈ 2.09 µg/mL) | 0.8 (≈ 2.09 µg/mL) | 1.5 (≈ 3.92 µg/mL) | 0.8 (≈ 2.09 µg/mL) | 0.8 (≈ 2.09 µg/mL) | 0.4 (≈ 1.05 µg/mL) | 0.8 (≈ 2.09 µg/mL) | 340.2 | 889 µg/mL and 340 µM |
